The values below come from patent US4736058A, “Prostacyclins and process for production thereof” (Teijin Limited, priority 1983, dated 1988).

Molecules are shown by their SMILES. In brackets after ≈: the same amount, converted by molar mass. Read-outs that look alike come from different tables or passages of the source. A value given as a limit tells only on which side of the number the result lay.

For data set [1] the following is noted: background; natural prostacyclin under neutral or acidic conditions; cited from earlier work.
The conditions of data set [2]: background; cited from earlier work.
Data set [3] deals with platelet aggregation (rabbit platelet-rich plasma, ADP). Description: in vitro inhibition of ADP-induced platelet aggregation. The format is cell-based, rabbit (Japanese domestic white male). The following applies: Oryctolagus cuniculus. As to the method: (i) Measurement of in vitro inhibitory activity of platelet aggregation
The in vitro platelet aggregation inhibiting activities of 9(0)-methano-Δ^6(9) -prostaglandin I, obtained in Example 3 was examined by using rabbits. Blood was withdrawn from the ear vein of Japanese domestic white male rabbits weighing 2.5 to 3.5 kg. A mixture of a 3.8% trisodium citrate solution and the blood in a ratio of 1:9 was centrifuged at a speed of 1000 rpm for 10 minutes. The upper layer was separated as platelet-rich plasma (PRP). The lower layer was further centrifuged at a speed of […] for 10 minutes. The upper layer was separated as platelet-poor plasma (PPP). The number of platelets was adjusted to 6×10^5 /μl to 7×10^5 /μl by diluting the PRP with PPP. 25 microliters of the test compound prepared as shown below was added in an amount of 250 microliters of PRP after the adjustment, and the mixture was pre-incubated at 37° C. for 2 minutes, and then 10 μM (final) of ADP was added. By using an aggregometer, changes in transmission were recorded.
The test compound was dissolved in ethanol to a concentration of 10 mg/ml. When its activity was measured, it was used after being diluted with phosphate buffer (pH 7.4).
The rate of inhibition of platelet aggregation was determined from the following equation. [formula] To : the transmittance of the system containing the phosphate buffer, T: the transmittance of the system to which the test compound was added.
The minimum concentration of the compound which inhibited more than 50% of platelet aggregation was shown as an IC50 value.

Data set [4] is described as follows: hypotensive activity, intravenous injection in anesthetized rats: blood pressure. The following applies: rat, i.v., dosage causing a 20% lowering of mean blood pressure. In kind it is in vivo, rat (male wister). As to the method:
(§1) (ii) Measurement of the hypotensive activity
(§2) The actions of the 9(0)-methano-Δ^6(9) -prostaglandin 1, obtained in Example 3 on the blood pressure and heart rate of rats were examined by intravenous injection under anesthesia.
(§3) Male wister rats weighing about 250 g were used. Urethane (500 mg/kg) and α-chloralose (100 mg/kg) were intraperitoneally administered to the rats. The rats were anesthetized and fixed place.
(§4) The test compound was dissolved in a small amount of ethanol and diluted with 0.05M Tris buffer saline (pH 9) to adjust the final ethanol concentration to not more than 5%. The solution was intravenously injected into the rats through a cathether inserted into the femoral vein.
(§5) The blood pressure of the rats was measured by a pressure transducer through a cathether inserted into the carotid artery of the rats. The heart rate was determined from the blood pressure pulse.
(§6) The action of the test compound on the blood pressure was expressed as the dosage (ED20, μg/kg) of the test compound which caused a 20% lowering of the mean blood pressure before administration of the compound. The action of the test compound on the heart rate was expressed as the dosage (ED10, μg/kg) of the test compound which caused a 10% increase of the heart rate from the heart rate before administration of the test compound.

Data set [5] can be described thus: heart rate, intravenous injection in anesthetized rats. In kind it is in vivo, rat (male wister). The following applies: rat, i.v., dosage causing a 10% increase of heart rate. As to the method:
as §1, §2, §3, §4, §5, §6

Data set [6] relates to epithelial cells of rabbits. Description: cell protecting action against cell lethal action at pH 3. In kind it is cell-based, rabbit. The settings on record: 10^-6 M.
[7] abbreviates: rabbit PRP, 10 μM ADP, minimum concentration which inhibited more than 50% of platelet aggregation, read-out: platelet aggregation inhibiting activity IC50.

In the case of `CCCCC[C@H](O)/C=C/[C@@H]1[C@H]2C/C(=C\CCCC(=O)O)C[C@H]2C[C@H]1O` [6,9-(0)-methanoprostacyclin], the “chemical stability, in words” value in data set [1] is on record as “able to satisfy the chemical stableness to perfection”. Besides, in data set [2], the “action-selectivity, in words” value is recorded as “not enough specific in action-selectivity” and the “biological activity relative to natural prostacyclin, in words” value is on record as “inferior to natural prostacyclin in biological activity”.

A word on the IC50: it is the concentration that inhibits the measured activity by half. As for `CCCCC[C@H](O)/C=C/[C@@H]1[C@H]2CC(CCCCC(=O)O)=C[C@H]2C[C@H]1O` [9(0)-methano-Δ^6(9) -prostaglandin I1], the IC50 was 5.4 ng/mL (≈ 0.0154 µM) in data set [3] (Platelet, rabbits, induced by ADP, read-out: inhibition of platelet aggregation IC50) and 5.4 ng/mL (≈ 0.0154 µM) in data set [3] (setting [7]). In addition, in data set [4], the ED20 was 1.7 µg/kg. Also, in data set [5], the “increase of heart rate ED10” value is above 30 µg/kg. Besides, the cell protecting action result in data set [6] is given as “has a cell protecting action”.

As for `CCCCC[C@H](O)/C=C/[C@@H]1[C@H]2C/C(=C/CCCC(=O)O)O[C@H]2C[C@H]1O` [PGI2], the IC50 in data set [3] (setting [7]) was found to be 1.6 ng/mL (≈ 0.00454 µM). In data set [4], this compound had an ED20 of 0.068 µg/kg. Also, in data set [5], the “increase of heart rate ED10” value was above 10 µg/kg. Besides, in data set [1], the “chemical stability, in words” value is recorded as “apt to be appreciably hydrolyzed”.
